The target in this assay is T1, SGK1 protein kinase (Homo sapiens, UniProt O00141).
T1 sequence (O00141 1-431): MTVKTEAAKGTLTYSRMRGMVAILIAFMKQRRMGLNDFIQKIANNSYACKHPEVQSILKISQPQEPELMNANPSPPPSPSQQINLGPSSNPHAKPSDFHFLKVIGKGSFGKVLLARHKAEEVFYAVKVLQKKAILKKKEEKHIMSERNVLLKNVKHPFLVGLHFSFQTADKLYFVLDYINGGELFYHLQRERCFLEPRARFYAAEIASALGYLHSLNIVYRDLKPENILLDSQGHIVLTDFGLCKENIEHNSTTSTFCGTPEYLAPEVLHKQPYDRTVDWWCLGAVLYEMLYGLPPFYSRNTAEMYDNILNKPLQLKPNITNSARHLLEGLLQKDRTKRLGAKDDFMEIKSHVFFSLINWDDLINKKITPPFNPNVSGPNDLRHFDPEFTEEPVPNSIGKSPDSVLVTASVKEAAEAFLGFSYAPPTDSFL
The experiment in a line: SGK inhibition (filter binding method, analogously to CHK1, CHK2). It counts as biochemical. Here is the method:
5-20 mU of CHK1 kinase (diluted in 20 mM MOPS pH7.5, 1 mM EDTA, 0.1% β-mercaptoethanol, 0.01% Brij-35, 5% glycerol, 1 mg/ml of BSA) are incubated for 30 min at room temperature in the presence of 30-200 μM CHKtide in 25.5 μl in 1-fold reaction buffer (8 mM MOPS pH7, 0.2 mM EDTA, 10 mM magnesium acetate, 0.02 mM ^33P-ATP [500-1000 cpm/pmol]). The reaction is stopped using 5 μl of 0.5 M ortho-phosphoric acid and filtered through P81 filter plates. After the filter plates have been washed a number of times, the bound radioactivity is determined in a scintillation counter.
5-20 mU of CHK2 kinase (diluted in 20 mM MOPS pH7.5, 1 mM EDTA, 0.1% β-mercaptoethanol, 0.01% Brij-35, 5% glycerol, 1 mg/ml of BSA) are incubated for 30 min at room temperature in the presence of 30-200 μM CHKtide ([…]) in 25.5 μl in 1-fold reaction buffer (8 mM MOPS pH7, 0.2 mM EDTA, 10 mM magnesium acetate, 0.02 mM ^33P-ATP [500-1000 cpm/pmol]). The reaction is stopped using 5 μl of 0.5 M ortho-phosphoric acid and filtered through P81 filter plates. After the filter plates have been washed a number of times, the bound radioactivity is determined in a scintillation counter.
The inhibition of SGK1 protein kinase can be determined in the filter binding method (analogously to CHK1, CHK2).

In the case of `COc1cccc(CNc2c(Nc3ccc4[nH]nc(NC(=O)c5ccccc5)c4c3)c(=O)c2=O)c1` [Compound 41, 3-(3-benzoylamino-1H-indazol-5-ylamino)-4-(3-methoxybenzylamino)cyclobut-3-ene-1,2-dione], the concentration for half-maximal inhibition (IC50) was found to be 61.5 nM.
Then `COc1cccc([C@@H](C)Nc2c(Nc3ccc4[nH]nc(NC(=O)c5ccccc5)c4c3)c(=O)c2=O)c1` [Compound 42, 3-(3-benzoylamino-1H-indazol-5-ylamino)-4-[(R)-1-(3-methoxyphenyl)ethylamino]cyclobut-3-ene-1,2-dione], with 10 nM; and `O=C(Nc1n[nH]c2ccc(Nc3c(NCc4cccc(O)c4)c(=O)c3=O)cc12)c1ccccc1` [Compound 40, 3-(3-benzoylamino-1H-indazol-5-ylamino)-4-(3-hydroxybenzylamino)cyclobut-3-ene-1,2-dione], with 10 nM.

As usually defined, the IC50 is the concentration that gives 50% inhibition. Read a high IC50 as lower potency.

Source of the values: patent publication US20090036449A1, “Indazolesquaric Acid Derivatives as Chk1, Chk2 and Sgk Inhibitors” (priority 2005, published 2009).
